The source of these data is patent US12070467B2, “Method of treating ciliated tissue using CSA micelles” (Brigham Young University, priority 2018, dated 2024).

One may read the MIC as the least concentration at which growth counts as inhibited. A higher MIC goes with weaker potency.

Assay [1] has as its system biofilms of S. aureus (ATCC 25923), P. aeruginosa (ATCC 47085), C. albicans (ATCC 90028), C. auris (CDC 384). Briefly: Antibiofilm colorimetric (XTT) assay, percent survival (FIG. 3). In kind it is cell-based. Particulars: 24 h, p<0.05 relative to controls. The method, then:
Biofilm formation by selected bacterial and fungal strains was quantified by measuring metabolic activity within biofilms using 2,3-bis-(2-methoxy-4-nitro-5-sulfophenyl)-2H-tetrazolium-5-carboxanilide (XTT). Biofilms were formed in 96-well plates and incubated for 48 h at 37° C. […] After incubation, the wells were carefully washed with PBS. A solution of 10 mM menadione in 100% acetone was added to an XTT solution (0.5 mg/mL) and mixed. An aliquot of the XTT/menadione solution (100 μL) was added to each well. Each plate was then wrapped in aluminum foil and incubated for 2-3 h at 37° C. To prepare to read the optical density, aliquots of the supernatant (70 μL) were removed from each well. Using a microtiter plate reader, colorimetric changes were measured at 490 nm. […] (control). To corroborate the antibiofilm data from counting bacterial and fungal colonies, a colorimetric assay was performed to quantify biofilms remaining on surfaces after treatment. Results were normalized to untreated controls. […] Antibiofilm results determined through colorimetric (XTT) assay represented as percent survival. […]
(Formazan colour is commonly taken as a measure of viable cells.)

Another assay has as its system C. albicans. The experiment in a line: Kinetics of fungicidal activity. In kind it is cell-based, Candida albicans. Conditions: CSA-131 100 μg/mL, pluronic 4%, data not shown. As to the method: (§1) Cultures were incubated at 37° C. At 5, 15, 30, 60, and 120 min, aliquots were removed from each well and added to neutralizing buffer to ensure that no further antibacterial activity occurred. These samples were then serially diluted and plated on TSA or SDA. Cultures were incubated at 37° C. for 24 h or 48 h, and colonies were counted and recorded.
Detection limit was two logs.

The subject of the next assay is S. aureus ATCC 25923. Briefly: Minimum inhibitory concentration (MIC), broth microdilution. The class given is cell-based, Staphylococcus aureus. Particulars: 37° C., 18-20 h. As to the method:
(§2) Staphylococcus aureus (ATCC 25923) and Pseudomonas aeruginosa (ATCC 47085 (PA01)) were grown from fresh colonies in trypticase soy broth (TSB) and incubated overnight at 37° C. Fungal cultures, Candida albicans (ATCC 90028) and Candida auris (CDC 0382, 0384, 0387, and 0389), were grown overnight in sabouraud dextrose broth (SDB) or Roswell Park Memorial Institute medium (RPMI). Cultures of bacteria and fungi were centrifuged, and pellets were washed three times with phosphate buffered saline (PBS) and further resuspended in fresh PBS. Bacterial cultures were diluted in TSB and fungal cultures were diluted in SDB or RPMI to […] or 10^6 CFU/mL (optical density (OD) readings at 600 nm).
Minimum inhibitory concentrations (MICs) were measured using the broth microdilution protocol described by the Clinical and Laboratory Standards Institute. […] Aliquots (100 μL) of a prepared inoculum (10^6 CFU/mL for bacteria and […] CFU/mL for fungi) were added, and plates were incubated at 37° C. for 18-20 h. Bacterial or fungal growth was visually observed to determine the MICs. Negative and positive controls were included for each set of MIC measurements. For studies with pluronic, the surfactant was added at 4% and 5% to the initial inocula in each experiment. Measurements were performed in triplicate for all susceptibility tests.
A general note: Dilution methods test growth across graded concentrations, often in twofold steps.

The test system of assay [2] is bacterial and fungal biofilms: S. aureus (ATCC 25923), P. aeruginosa (ATCC 47085), C. albicans (ATCC 90028), C. auris (CDC 384). Briefly: Antibiofilm activity by plating organisms freed from biofilms and counting colonies (FIG. 2). The class given is cell-based. Particulars: 100 μg/mL, 48 h biofilms. As to the method: Consequently, this concentration was used as a target for antibacterial and antifungal activity, as well as in tolerability studies with trachea and lung explants. A key preliminary question in these studies is whether the pluronic alone has any effect on bacteria and fungi. […] In these assays, biofilms were generated over 48 h, and after treatment, bacterial and fungal counts were determined by plating organisms freed from biofilms and counting colonies. Detection limits for the experiments were two logs. […] Antibiofilm results were determined through the plating of microorganisms freed from biofilms, culturing, and plate counting. In FIG. 2, white bars show remaining S. aureus (ATCC 25923); black bars show remaining P. aeruginosa (ATCC 47085); gray bars show remaining C. albicans (ATCC 90028); hashed bars show remaining C. auris (CDC 384). The Detection limit was 2 logs. * indicates p<0.05 relative to controls and to pluronic alone.

The subject of another assay is S. aureus. The experiment in a line: Kinetics of bactericidal activity. Particulars: CSA-131 100 μg/mL, pluronic 4%, data not shown. In kind it is cell-based, Staphylococcus aureus. The method, then: as §1
FIG. 4 is a line graph comparing the kinetic antibacterial activity of CSA compositions with micelles compared to a control without CSA. Inocula of just over 10^6 CFU/mL were reduced to the detection limit within 15 min. […] Detection limit was two logs.

In assay [3] the test system is P. aeruginosa ATCC 47085 biofilm. The experiment in a line: Minimum biofilm eradication concentration (MBEC). The class given is cell-based, Pseudomonas aeruginosa. Conditions: 48 h biofilm, 24 h treatment. As to the method: as §2
Inocula (10^6 CFU/mL) of bacterial and fungal strains (P. aeruginosa, S. aureus, C. albicans, and C. auris) were incubated at 37° C. for 48 h in 1 mL of TSB or SDB in 96-well plates. Following incubation, the growth medium was gently removed, and wells were washed three times with sterile PBS. […] Wells, including well edges, were scraped thoroughly with a plastic spatula. Well contents were removed in 1 mL of neutralizing broth (Dey-Engley, Sigma-Aldrich) and placed in a sonicating water bath (Fisher Scientific FS60, 42 kHz, 100 W, Pittsburgh, PA, USA) to disrupt biofilms. […] After 24 h or 48 h of incubation at 37° C., colonies were counted and MBECs were determined. […]

Turning to `CCCCCCCCCCCCNCCC[C@@H](C)[C@H]1CC[C@H]2[C@@H]3[C@H](OCCCN)C[C@@H]4C[C@H](OCCCN)CC[C@]4(C)[C@H]3C[C@H](OCCCN)[C@]12C.Cl.Cl.Cl.Cl` [CSA-131], the “Biofilm remaining after treatment (XTT, percent survival vs untreated control)” value in assay [1] (CSA-131 100 μg/mL alone) is listed as “Significant decreases in biofilm”; in assay [1] (CSA-131 100 μg/mL with pluronic, difference to CSA-131 alone not significant), “Significant decreases in biofilm”. Further, the “Difference in kinetic activity of the ceragenin alone and with pluronic” value in the assay with C. albicans and in the assay on S. aureus was “no significant differences” throughout. The same molecule returned an MIC against S. aureus ATCC 25923 of 1 µg/mL. The “Reduction of bacterial and fungal counts from biofilms” value in assay [2] (with pluronic) was more than 99.99%; in assay [2] (with pluronic, counts lowered to the detection limit (two logs)), “> four”; in assay [2] (without pluronic) it was more than 99.99%; in assay [2] (without pluronic, counts lowered to the detection limit (two logs)), “> four”. In addition, the MBEC in assay [3] was determined as 100 µg/mL.
